{"source": "ChEMBL document CHEMBL1129342", "about": "“Structure-based design of novel HIV protease inhibitors: sulfonamide-containing 4-hydroxycoumarins and 4-hydroxy-2-pyrones as potent non-peptidic inhibitors” (J Med Chem, 1996)", "key": {"[1]": {"molecular_target": "Human immunodeficiency virus type 1 protease (Human immunodeficiency virus 1) (UniProt Q72874)", "description": "Inhibitory concentration for antiviral activity against MT-4/HIV-1IIIB cell culture"}, "[2]": {"molecular_target": "T1, Human immunodeficiency virus type 1 protease (Human immunodeficiency virus 1, UniProt Q72874)", "experiment": "Binding affinity against HIV-1 protease."}, "[3]": {"molecular_target": "T1, Human immunodeficiency virus type 1 protease", "experiment": "Binding affinity towards HIV protease"}}}
{"smiles": "CCC(Cc1ccccc1)c1cc(O)c(C(c2cccc(NS(=O)(=O)c3cn(C)cn3)c2)C2CC2)c(=O)o1", "note": "(single isomer, unassigned; diastereomer 3) [listing 1 of 2 here]", "values": [{"measurement": "IC90", "setting": "[1]", "result": 6800, "unit": "nM"}]}
{"smiles": "O=c1cc(C(CC2CC2)CC2CC2)oc(O)c1C(c1cccc(NS(=O)(=O)c2ccc(F)cc2)c1)C1CC1", "note": "(stereo not given)", "values": [{"measurement": "Ki", "setting": "[2]", "result": 16, "unit": "nM"}, {"measurement": "IC90", "setting": "[1]", "result": 8000, "unit": "nM"}]}
{"smiles": "Cn1cnc(S(=O)(=O)Nc2cccc(C(c3c(O)cc(C(CC4CC4)CC4CC4)oc3=O)C3CC3)c2)c1", "note": "(single isomer, unassigned; enantiomer 2)", "values": [{"measurement": "IC90", "setting": "[1]", "result": 6900, "unit": "nM"}]}
{"smiles": "CCC(c1cccc(NC(=O)CCNC2C=Cc3ccccc32)c1)c1c(O)oc2ccccc2c1=O", "note": "(stereo not given)", "values": [{"measurement": "Ki", "setting": "[3]", "result": 110, "unit": "nM"}]}
{"smiles": "CCC(Cc1ccccc1)c1cc(O)c(C(c2cccc(NS(=O)(=O)c3cccc4cccnc34)c2)C2CC2)c(=O)o1", "note": "(stereo not given)", "values": [{"measurement": "Ki", "setting": "[2]", "result": 3.5, "unit": "nM"}, {"measurement": "IC90", "setting": "[1]", "result": 6000, "unit": "nM"}]}
{"smiles": "CCCS(=O)(=O)Nc1cccc(C(c2c(O)cc(C(CC)Cc3ccccc3)oc2=O)C2CC2)c1", "note": "(stereo not given)", "values": [{"measurement": "Ki", "setting": "[2]", "result": 40, "unit": "nM"}, {"measurement": "IC90", "setting": "[1]", "result": 11100, "unit": "nM"}]}
{"smiles": "Cn1cnc(S(=O)(=O)Nc2cccc(C(c3c(O)cc(C(CC4CC4)CC4CC4)oc3=O)C3CC3)c2)c1", "note": "(single isomer, unassigned; enantiomer 1)", "values": [{"measurement": "IC90", "setting": "[1]", "result": 10400, "unit": "nM"}]}
{"smiles": "CCC(Cc1ccccc1)c1cc(O)c(C(c2cccc(NS(=O)(=O)c3ccc(OC)cc3)c2)C2CC2)c(=O)o1", "note": "(stereo not given)", "values": [{"measurement": "Ki", "setting": "[2]", "result": 22, "unit": "nM"}, {"measurement": "IC90", "setting": "[1]", "result": 7600, "unit": "nM"}]}
{"smiles": "CCC(CCOCCOC)c1cc(O)c(C(c2cccc(NS(=O)(=O)c3cn(C)cn3)c2)C2CC2)c(=O)o1", "note": "(stereo not given)", "values": [{"measurement": "Ki", "setting": "[2]", "result": 0.88, "unit": "nM"}]}
{"smiles": "O=c1cc(C(CC2CC2)CC2CC2)oc(O)c1C(c1cccc(NS(=O)(=O)c2ccccc2)c1)C1CC1", "note": "(stereo not given)", "values": [{"measurement": "Ki", "setting": "[2]", "result": 23, "unit": "nM"}, {"measurement": "IC90", "setting": "[1]", "result": 12100, "unit": "nM"}]}
{"smiles": "CCC(Cc1ccccc1)c1cc(O)c(C(c2cccc(NS(=O)(=O)c3ccc(C#N)cc3)c2)C2CC2)c(=O)o1", "note": "(stereo not given)", "values": [{"measurement": "Ki", "setting": "[2]", "result": 5.7, "unit": "nM"}, {"measurement": "IC90", "setting": "[1]", "result": 9900, "unit": "nM"}]}
{"smiles": "CCC(Cc1ccccc1)c1cc(O)c(C(c2cccc(NS(=O)(=O)c3cn(C)cn3)c2)C2CC2)c(=O)o1", "note": "(single isomer, unassigned; diastereomer 1) [listing 1 of 2 here]", "values": [{"measurement": "Ki", "setting": "[2]", "result": 0.52, "unit": "nM"}]}
{"smiles": "CCC(Cc1ccccc1)c1cc(O)c(C(c2cccc(NS(=O)(=O)c3cn(C)cn3)c2)C2CC2)c(=O)o1", "note": "(single isomer, unassigned; diastereomer 3) [listing 2 of 2 here]", "values": [{"measurement": "Ki", "setting": "[2]", "result": 1.9, "unit": "nM"}]}
{"smiles": "Cn1cnc(S(=O)(=O)Nc2cccc(C(c3c(O)cc(CCc4ccccc4)oc3=O)C3CC3)c2)c1", "note": "(stereo not given)", "values": [{"measurement": "Ki", "setting": "[2]", "result": 0.97, "unit": "nM"}]}
{"smiles": "CCC(Cc1ccccc1)c1cc(O)c(C(c2cccc(NS(=O)(=O)c3cn(C)cn3)c2)C2CC2)c(=O)o1", "note": "(single isomer, unassigned; diastereomer 4) [listing 1 of 2 here]", "values": [{"measurement": "Ki", "setting": "[2]", "result": 1.4, "unit": "nM"}]}
{"smiles": "COc1ccc2c(O)c(C(c3cccc(NS(=O)(=O)c4cccc5cccnc45)c3)C3CC3)c(=O)oc2c1", "note": "(stereo not given)", "values": [{"measurement": "Ki", "setting": "[2]", "result": 4.9, "unit": "nM"}]}
{"smiles": "CCC(Cc1ccccc1)c1cc(O)c(C(c2cccc(NS(=O)(=O)c3ccccc3)c2)C2CC2)c(=O)o1", "note": "(stereo not given)", "values": [{"measurement": "Ki", "setting": "[2]", "result": 17, "unit": "nM"}, {"measurement": "IC90", "setting": "[1]", "result": 7600, "unit": "nM"}]}
{"smiles": "COCCOCCCc1cc(O)c(C(c2cccc(NS(=O)(=O)c3cn(C)cn3)c2)C2CC2)c(=O)o1", "note": "(stereo not given)", "values": [{"measurement": "Ki", "setting": "[2]", "result": 1.6, "unit": "nM"}]}
{"smiles": "CCC(Cc1ccccc1)c1cc(O)c(C(c2cccc(NC(=O)C(Cc3c[nH]cn3)NC(=O)OC(C)(C)C)c2)C2CC2)c(=O)o1", "note": "(stereo not given)", "values": [{"measurement": "Ki", "setting": "[3]", "result": 4, "unit": "nM"}]}
{"smiles": "CCC(Cc1ccccc1)c1cc(O)c(C(c2cccc(NS(=O)(=O)c3cn(C)cn3)c2)C2CC2)c(=O)o1", "note": "(single isomer, unassigned; diastereomer 4) [listing 2 of 2 here]", "values": [{"measurement": "IC90", "setting": "[1]", "result": 6000, "unit": "nM"}]}
{"smiles": "Cc1cc(O)c(C(c2cccc(NS(=O)(=O)c3cn(C)cn3)c2)C2CC2)c(=O)o1", "note": "(stereo not given)", "values": [{"measurement": "Ki", "setting": "[2]", "result": 14, "unit": "nM"}]}
{"smiles": "CCC(Cc1ccccc1)c1cc(O)c(C(c2cccc(NS(=O)(=O)c3ccc(Cl)cc3)c2)C2CC2)c(=O)o1", "note": "(stereo not given)", "values": [{"measurement": "Ki", "setting": "[2]", "result": 15, "unit": "nM"}, {"measurement": "IC90", "setting": "[1]", "result": 6200, "unit": "nM"}]}
{"smiles": "CCC(Cc1ccccc1)c1cc(O)c(C(c2cccc(NS(=O)(=O)c3cn(C)cn3)c2)C2CC2)c(=O)o1", "note": "(single isomer, unassigned; diastereomer 2) [listing 1 of 2 here]", "values": [{"measurement": "Ki", "setting": "[2]", "result": 0.73, "unit": "nM"}]}
{"smiles": "Cn1cnc(S(=O)(=O)Nc2cccc(C(c3c(O)cc(C(CC4CC4)CC4CC4)oc3=O)C3CC3)c2)c1", "note": "(racemic)", "values": [{"measurement": "IC90", "setting": "[1]", "result": 4600, "unit": "nM"}]}
{"smiles": "CCC(Cc1ccccc1)c1cc(O)c(C(c2cccc(NS(=O)(=O)c3cn(C)cn3)c2)C2CC2)c(=O)o1", "note": "(single isomer, unassigned; diastereomer 1) [listing 2 of 2 here]", "values": [{"measurement": "IC90", "setting": "[1]", "result": 4500, "unit": "nM"}]}
{"smiles": "COCCOCCC(CCOCCOC)c1cc(O)c(C(c2cccc(NS(=O)(=O)c3cn(C)cn3)c2)C2CC2)c(=O)o1", "note": "(stereo not given)", "values": [{"measurement": "Ki", "setting": "[2]", "result": 4.2, "unit": "nM"}]}
{"smiles": "CCC(Cc1ccccc1)c1cc(O)c(C(c2cccc(NS(=O)(=O)c3cccnc3)c2)C2CC2)c(=O)o1", "note": "(stereo not given)", "values": [{"measurement": "Ki", "setting": "[2]", "result": 12, "unit": "nM"}, {"measurement": "IC90", "setting": "[1]", "result": 28700, "unit": "nM"}]}
{"smiles": "COc1ccc2c(O)c(C(c3cccc(NS(=O)(=O)c4cn(C)cn4)c3)C3CC3)c(=O)oc2c1", "note": "(stereo not given)", "values": [{"measurement": "Ki", "setting": "[2]", "result": 0.7, "unit": "nM"}]}
{"smiles": "CCC(CC1CCOCC1)c1cc(O)c(C(c2cccc(NS(=O)(=O)c3cn(C)cn3)c2)C2CC2)c(=O)o1", "note": "(stereo not given)", "values": [{"measurement": "Ki", "setting": "[2]", "result": 0.48, "unit": "nM"}]}
{"smiles": "CCC(Cc1ccccc1)c1cc(O)c(C(c2cccc(NC(=O)Cc3cccnc3)c2)C2CC2)c(=O)o1", "note": "(stereo not given)", "values": [{"measurement": "Ki", "setting": "[3]", "result": 44, "unit": "nM"}]}
{"smiles": "COc1ccc2c(O)c(C(c3cccc(NS(=O)(=O)c4ccc(F)cc4)c3)C3CC3)c(=O)oc2c1", "note": "(stereo not given)", "values": [{"measurement": "Ki", "setting": "[2]", "result": 7.7, "unit": "nM"}]}
{"smiles": "CCC(CC)c1cc(O)c(C(c2cccc(NS(=O)(=O)c3cn(C)cn3)c2)C2CC2)c(=O)o1", "note": "(stereo not given)", "values": [{"measurement": "Ki", "setting": "[2]", "result": 0.54, "unit": "nM"}]}
{"smiles": "CCC(Cc1ccccc1)c1cc(O)c(C(c2cccc(NS(=O)(=O)c3cn(C)cn3)c2)C2CC2)c(=O)o1", "note": "(mixture of isomers) [listing 1 of 2 here]", "values": [{"measurement": "Ki", "setting": "[2]", "result": 1.3, "unit": "nM"}]}
{"smiles": "COc1ccc2c(O)c(C(c3cccc(NS(=O)(=O)c4ccc(C#N)cc4)c3)C3CC3)c(=O)oc2c1", "note": "(stereo not given)", "values": [{"measurement": "Ki", "setting": "[2]", "result": 5.8, "unit": "nM"}]}
{"smiles": "COc1c(C(O)c2ccccc2)c(=O)oc2ccccc12", "note": "(stereo not given)", "values": [{"measurement": "Ki", "setting": "[3]", "result": 1, "unit": "nM"}]}
{"smiles": "CCC(Cc1ccccc1)c1cc(O)c(C(c2cccc(NS(=O)(=O)c3cn(C)cn3)c2)C2CC2)c(=O)o1", "note": "(mixture of isomers) [listing 2 of 2 here]", "values": [{"measurement": "IC90", "setting": "[1]", "result": 4100, "unit": "nM"}]}
{"smiles": "N#Cc1ccc(S(=O)(=O)Nc2cccc(C(c3c(O)oc(C(CC4CC4)CC4CC4)cc3=O)C3CC3)c2)cc1", "note": "(stereo not given)", "values": [{"measurement": "Ki", "setting": "[2]", "result": 5.4, "unit": "nM"}, {"measurement": "IC90", "setting": "[1]", "result": 8900, "unit": "nM"}]}
{"smiles": "O=c1cc(C(CC2CC2)CC2CC2)oc(O)c1C(c1cccc(NS(=O)(=O)c2cccc3cccnc23)c1)C1CC1", "note": "(stereo not given)", "values": [{"measurement": "Ki", "setting": "[2]", "result": 5.3, "unit": "nM"}, {"measurement": "IC90", "setting": "[1]", "result": 6500, "unit": "nM"}]}
{"smiles": "CCC(Cc1ccccc1)c1cc(O)c(C(c2cccc(NS(=O)(=O)c3cn(C)cn3)c2)C2CC2)c(=O)o1", "note": "(single isomer, unassigned; diastereomer 2) [listing 2 of 2 here]", "values": [{"measurement": "IC90", "setting": "[1]", "result": 5700, "unit": "nM"}]}
